Experimental data: the NIST ThermoML archive (doi:10.1016/j.fluid.2010.02.022)
± gives the expanded uncertainty stated by the source.

Settings: 101 kPa, Liquid, Pendant drop method

SMILES | interfacial tension (293 K) [mN/m] | interfacial tension (298 K) [mN/m] | interfacial tension (303 K) [mN/m] | interfacial tension (308 K) [mN/m] | interfacial tension (313 K) [mN/m] | interfacial tension (318 K) [mN/m] | interfacial tension (323 K) [mN/m]
CCCCCCCCn1cc[n+](C)c1.O=S(=O)([N-]S(=O)(=O)C(F)(F)F)C(F)(F)F + CCCCCC | 3.12 ± 0.11 | 3.07 ± 0.11 | 3.02 ± 0.11 | 2.95 ± 0.11 | 2.88 ± 0.11 | – | –
CCCCCC[n+]1ccn(C)c1.O=S(=O)([N-]S(=O)(=O)C(F)(F)F)C(F)(F)F + CCCCCC | 5.19 ± 0.14 | 5.1 ± 0.13 | 4.99 ± 0.13 | 4.88 ± 0.13 | 4.79 ± 0.13 | – | –
CCCC[n+]1ccn(C)c1.O=S(=O)([N-]S(=O)(=O)C(F)(F)F)C(F)(F)F + CCCCCC | 7.78 ± 0.17 | 7.64 ± 0.17 | 7.5 ± 0.17 | 7.37 ± 0.16 | 7.24 ± 0.16 | – | –
CCn1cc[n+](C)c1.O=S(=O)([N-]S(=O)(=O)C(F)(F)F)C(F)(F)F + CCCCCC | 11.36 ± 0.22 | 11.23 ± 0.22 | 11.12 ± 0.22 | 10.98 ± 0.22 | 10.82 ± 0.21 | – | –
CCCCCCCCn1cc[n+](C)c1.O=S(=O)([N-]S(=O)(=O)C(F)(F)F)C(F)(F)F + CCCCCCCC | 3.76 ± 0.1 | 3.69 ± 0.1 | 3.6 ± 0.1 | 3.49 ± 0.1 | 3.38 ± 0.1 | – | –
CCCCCC[n+]1ccn(C)c1.O=S(=O)([N-]S(=O)(=O)C(F)(F)F)C(F)(F)F + CCCCCCCC | 5.79 ± 0.11 | 5.66 ± 0.11 | 5.5 ± 0.11 | 5.36 ± 0.11 | 5.24 ± 0.11 | – | –
CCCC[n+]1ccn(C)c1.O=S(=O)([N-]S(=O)(=O)C(F)(F)F)C(F)(F)F + CCCCCCCC | 8.78 ± 0.11 | 8.6 ± 0.11 | 8.43 ± 0.11 | 8.25 ± 0.11 | 8.1 ± 0.11 | – | –
CCn1cc[n+](C)c1.O=S(=O)([N-]S(=O)(=O)C(F)(F)F)C(F)(F)F + CCCCCCCC | 12.23 ± 0.13 | 12.1 ± 0.13 | 11.84 ± 0.12 | 11.7 ± 0.12 | 11.43 ± 0.12 | – | –
CCCCCCCCn1cc[n+](C)c1.O=S(=O)([N-]S(=O)(=O)C(F)(F)F)C(F)(F)F + CCCCCCCCCC | 3.98 ± 0.1 | 3.88 ± 0.1 | 3.76 ± 0.1 | 3.63 ± 0.1 | 3.51 ± 0.1 | – | –
CCCCCC[n+]1ccn(C)c1.O=S(=O)([N-]S(=O)(=O)C(F)(F)F)C(F)(F)F + CCCCCCCCCC | 6.59 ± 0.11 | 6.47 ± 0.11 | 6.36 ± 0.11 | 6.24 ± 0.11 | 6.11 ± 0.11 | – | –
CCCC[n+]1ccn(C)c1.O=S(=O)([N-]S(=O)(=O)C(F)(F)F)C(F)(F)F + CCCCCCCCCC | 9.43 ± 0.12 | 9.33 ± 0.12 | 9.21 ± 0.12 | 9.1 ± 0.12 | 8.99 ± 0.12 | – | –
CCn1cc[n+](C)c1.O=S(=O)([N-]S(=O)(=O)C(F)(F)F)C(F)(F)F + CCCCCCCCCC | 12.87 ± 0.14 | 12.75 ± 0.14 | 12.64 ± 0.14 | 12.52 ± 0.14 | 12.41 ± 0.14 | – | –
CCCCCCCCCCn1cc[n+](C)c1.O=S(=O)([N-]S(=O)(=O)C(F)(F)F)C(F)(F)F + O | 17.71 ± 0.14 | 17.41 ± 0.14 | 17.09 ± 0.14 | 16.75 ± 0.13 | 16.41 ± 0.13 | 16.05 ± 0.13 | 15.66 ± 0.13
CCCCCCCCn1cc[n+](C)c1.O=S(=O)([N-]S(=O)(=O)C(F)(F)F)C(F)(F)F + O | 16.47 ± 0.14 | 15.79 ± 0.13 | 15.67 ± 0.13 | 15.37 ± 0.13 | 15.06 ± 0.13 | 14.61 ± 0.13 | 14.44 ± 0.13
CCCCCC[n+]1ccn(C)c1.O=S(=O)([N-]S(=O)(=O)C(F)(F)F)C(F)(F)F + O | 15.39 ± 0.13 | 14.82 ± 0.13 | 14.49 ± 0.13 | 14.17 ± 0.13 | 14.01 ± 0.12 | 13.78 ± 0.12 | 13.45 ± 0.12
CCCC[n+]1ccn(C)c1.O=S(=O)([N-]S(=O)(=O)C(F)(F)F)C(F)(F)F + O | 13.69 ± 0.12 | 13.2 ± 0.12 | 12.57 ± 0.12 | 12.31 ± 0.12 | 11.62 ± 0.12 | 11.4 ± 0.12 | 11.07 ± 0.12
CCn1cc[n+](C)c1.O=S(=O)([N-]S(=O)(=O)C(F)(F)F)C(F)(F)F + O | 10.04 ± 0.11 | 9.85 ± 0.11 | 9.51 ± 0.11 | 9.29 ± 0.11 | 9.05 ± 0.11 | 8.79 ± 0.11 | 8.61 ± 0.11
Cn1cc[n+](C)c1.O=S(=O)([N-]S(=O)(=O)C(F)(F)F)C(F)(F)F [1,3-dimethylimidazolium bis((trifluoromethyl)sulfonyl)amide] + O | – | 8.05 ± 0.11 | 7.83 ± 0.11 | 7.49 ± 0.11 | 7.14 ± 0.11 | 6.82 ± 0.11 | 6.52 ± 0.11
CCCCn1cc[n+](C)c1.O=C([O-])C(F)(F)F [1-butyl-3-methylimidazolium trifluoroacetate] + CCCCCC | 8.74 ± 0.18 | 8.58 ± 0.18 | 8.43 ± 0.18 | 8.29 ± 0.18 | 8.16 ± 0.17 | – | –
CCCCn1cc[n+](C)c1.O=C([O-])C(F)(F)F [1-butyl-3-methylimidazolium trifluoroacetate] + CCCCCCCC | 9.38 ± 0.12 | 9.29 ± 0.12 | 9.21 ± 0.12 | 9.11 ± 0.12 | 8.98 ± 0.11 | – | –
CCCCn1cc[n+](C)c1.O=C([O-])C(F)(F)F [1-butyl-3-methylimidazolium trifluoroacetate] + CCCCCCCCCC | 10.52 ± 0.13 | 10.41 ± 0.13 | 10.29 ± 0.13 | 10.16 ± 0.13 | 10.04 ± 0.13 | – | –
CCCCn1cc[n+](C)c1.O=S(=O)([O-])C(F)(F)F [1-butyl-3-methylimidazolium trifluoromethanesulfonate] + CCCCCC | 9.07 ± 0.19 | 8.9 ± 0.19 | 8.74 ± 0.18 | 8.58 ± 0.18 | 8.43 ± 0.18 | – | –
CCCCn1cc[n+](C)c1.O=S(=O)([O-])C(F)(F)F [1-butyl-3-methylimidazolium trifluoromethanesulfonate] + CCCCCCCC | 9.96 ± 0.12 | 9.88 ± 0.12 | 9.79 ± 0.12 | 9.7 ± 0.12 | 9.59 ± 0.12 | – | –
CCCCn1cc[n+](C)c1.O=S(=O)([O-])C(F)(F)F [1-butyl-3-methylimidazolium trifluoromethanesulfonate] + CCCCCCCCCC | 10.79 ± 0.13 | 10.67 ± 0.13 | 10.56 ± 0.13 | 10.44 ± 0.13 | 10.31 ± 0.13 | – | –
